Laboratory results: US10343997B1, “Ursolic acid derivatives” (KING SAUD UNIVERSITY, priority 2018, dated 2019)

What was measured:
[1] = system: guinea-pig isolated ileum; test: Relaxation of electrically induced contraction of guinea-pig isolated ileum; type: cell-based; details: Cavia porcellus, stimulation 25V, 0.1 Hz, 5 ms, means ± s.e., n = 6, read-out: pIC50 (−log IC50) for relaxation of electrically induced contraction (converted)
Protocol: (§1) Male guinea-pigs, weighing between 200-400 g, were killed by a blow on the head after previously being deprived of food for 18 h but having had free access to water. The non-terminal part of the ileum was removed and cut into 20-mm long segments, which were suspended in an organ bath and connected to an isotonic transducer. The organ bath contained 50 mL physiological solution oxygenated with 95% O2 and 5% […] at 37° C. The physiological solution was typically normal saline with 0.9% sodium chloride. The fluid of the organ bath was changed every 15 min. The ileal segments were subjected to a resting tension of 0.5-1 g and left to equilibrate for 60 min.
Each segment was treated with only one compound. The pIC50 (−log IC50) value of each compound was calculated from concentration-response curves.

rat isolated aorta = test: Relaxation of potassium-induced contraction of rat isolated aorta; type: cell-based; details: rat isolated aorta pre-contracted with 40 mM KCl; means ± s.e., n = 6; read-out: pIC50 (−log IC50) for relaxation of potassium-induced contraction (converted)
Protocol: Six white male rats were killed by a blow on the head and decapitation. The thoracic aorta of each rat was isolated, carefully dissected from the surrounding tissues, and cut into 5 segments, 3 mm in length. The segments were joined together, suspended in Krebs solution (composition in mmol: NaCl 118, KCl 4.8, CaCl2, 2.5, KH2PO4 1.2, MgSO4 1.2, NaHCO3 25 and glucose 10) at 37° C. and oxygenated with 95% O2 and 5% CO2. The fluid of the organ bath was changed every 15 min. The tissue was subject to a resting tension of 1 g and left to equilibrate for 1 h. The contractions of isolated aortic rings were recorded by means of a force transducer and Beckman physiograph. […] The pre-contracted tissue was then subject to increasing amounts of one of the calcium channel blockers added to the organ bath. The pIC50 value of each compound was calculated from concentration-response curves.

guinea-pig ileum = test: Calcium-induced contraction in K+-depolarized guinea-pig ileum; type: cell-based; details: 2×10^−9 M of compound; for Emax at 0.002 µM: Cavia porcellus, contraction induced by 3 mM calcium, 84.44% without antagonist, read-out: calcium-induced contractions, % of the maximum response
Protocol: as §1
As a control, increasing concentrations of CaCl2 (0.1, 0.3, 1, 3, 10 mmol) were added to an organ bath and the contractile response of the ileum was recorded. Tissues were then preincubated for 15-20 min with one concentration of each calcium channel blocker and increasing concentrations of CaCl2 were again added to the bathing media.
Response percentage ratios were calculated by dividing the percent of maximum responses induced by 3 mM calcium in the presence of each calcium-channel blocker at a concentration of 2×10^−9 M by the percent of maximum response induced by 3 mM calcium in the absence of any calcium-channel blocker.

[2] = target: voltage-dependent calcium channel; test: In vitro 3H-nitrendipine binding assay; details: competition with 3H-nitrendipine, plasma membrane from bovine cerebral cortices
pithed rat = test: In vivo evaluation of calcium blockade in the pithed rat (cardio accelerator response)
Protocol: Calcium blockers in the pithed rat were calculated in vivo.
Male Sprague-Dawley rats (250-350 g) were anaesthetized with methohexitone sodium (50 mg/kg, intraperitoneal injection). Following cannulation of the trachea, the rats were pithed through one orbit with a stainless steel rod and immediately artificially respired with room air (78 strokes/min, 1 mil/100 g body weight) via a Palmer small animal respiration pump. A jugular vein was cannulated for administration of drugs. Arterial blood pressure was recorded from a carotid artery using a pressure transducer.
Heart rate was derived from the phasic arterial pressure signal with a phase lock loop ratemeter (BRL Instrument Services). […] The animals were kept warm by an incandescent lamp positioned about 25 cm above them. The pithing rod was withdrawn until the tip reached the thoracic portion of the spinal cord. All rats then received (+)tubocurarine (1.5 mg/kg, intravenously) and were bilaterally vagotomized.
The cardio accelerator response was obtained by continuous electrical stimulation of the thoracic spinal cord with square wave pulses of 0.5 ms duration, at supramaximal voltage at a frequency of 0.5 Hz using the pithing rod as a stimulating electrode. An indifferent electrode was inserted subcutaneously in the femoral region. Only rats with a resulting tachycardia of more than 100 beats/min were included in the experiments. When the cardio accelerator response was stabilized for about 3-5 min, cumulative intravenous doses of test drug or corresponding vehicle were administered. Successive doses were given when the response to the previous dose stabilized.
Doses of β-blockers or calcium-antagonists, which reduce the tachycardia to 50%, were tested again. Three minutes after administration of the drug, calcium gluconate (1 mg/min) or water (0.1 ml/min) was infused using a Harvard apparatus compact infusion pump.
The level of tachycardia immediately prior to drug administration was taken as 100% and responses to drugs were calculated as a percentage of the predose tachycardia. […] Significance of differences between the groups receiving calcium gluconate and their parallel vehicle controls were calculated by a Student's t-test.

cardiac function = details: background statement; cited from earlier work

| Structure (SMILES) | IC50 [1] [nM] | IC50 (rat isolated aorta) [nM] | Emax at 0.002 µM (guinea-pig ileum) [%] | effect on tachycardia elicited by electrical stimulation of the spinal cord (pithed rat; result in words) | other results |
| --- | --- | --- | --- | --- | --- |
| COC(=O)C1=C(C)NC(C)=C(OC(C)=O)C1[C@]12CC[C@@H](C)[C@H](C)[C@H]1C1=CC[C@@H]3[C@@]4(C)CC[C@H](OC)C(C)(C)C4CC[C@@]3(C)[C@]1(C)CC2 (stereo partly shown) [Compound 4, Dihydropyridine-3,5-dicarboxylate Ursolic Acid Derivative] | 0.347 | 0.0174 | 27 |  | Response percentage ratio (guinea-pig ileum; 3 mM calcium, response with blocker divided by response without): 0.15 ± 0.009; The affinity constant Ki [2]: 3.1 × 10^−13 mol/1; ID50 (pithed rat; inhibition of electrically induced tachycardia, cumulative intravenous doses): 71620 nM; calcium channel blocker selectivity in pithed rat assay (pithed rat; result in words): selective calcium channel blocker |
| COC(=O)C1=C(C)NC(C)=C(C(=O)OC)C1c1ccccc1[N+](=O)[O-] [Nifedipine, reference compound] | 35.5 | 5.13 | 74 |  |  |
| CCN(CC)CC(=O)Nc1c(C)cccc1C [lignocaine, reference compound] |  |  |  | no effect |  |
| O=C(NCCO[N+](=O)[O-])c1cccnc1 [nicorandil, reference compound] |  |  |  | no effect |  |
| C[C@H]1[C@H](C)CC[C@]2(C(=O)O)CC[C@]3(C)C(=CC[C@@H]4[C@@]5(C)CC[C@H](O)C(C)(C)[C@@H]5CC[C@]43C)[C@H]12 [ursolic acid] |  |  |  |  | heart rate decrease (cardiac function): 32% |
